Here are results for three substances from patent US20240368241A1, “SYNDECAN PEPTIDES” (Queen Mary University of London, priority 2021, published 2024).

“Also recorded” adds a separate entry of the source.

One test concerns murine choroid explants. Kind of test: Ex-vivo angiogenic sprouting assay, murine choroid explants. Particulars: 0.5 μM peptide, 30 ng/ml VEGF, Collagen I matrix. In kind it is cell-based, mouse. On the procedure: FIG. 7: QM111T inhibits choroidal neovascularization. Murine choroid explants were embedded in a Collagen I matrix and supplemented with 30 ng/ml VEGF and either 0.5 μM of QM111, QM111T, QM107 or a combination.
Thoracic aortas were dissected from either male wistar rats (˜200 g) or 4-5 week old male C57BL6J mice (both obtained from Charles River, UK). The fat surrounding the aortas was removed as were any branches and the tissue sliced into <1 mm rings. Choroid membranes explants were isolated from 21 to 28 day old male C57BL6J mice. Eyes were punctured with scissors and the iris/cornea/lens and retina removed. The resultant Choroid was then cut into 1 mm3 chunks. After dissection both aortic rings and choroid explants were incubated overnight at 37° C. in Opti-MEM (Thermo Fisher Scientific) prior to embedding on ice in 0.15 ml of 1 mg/ml Collagen I (Millipore) in E4 medium (Thermo Fisher Scientific) in 48 well plates (Corning). After 30 mins incubation at 37° C., to set the Collagen, wells were supplemented with 200 ul Opti-MEM with 1% FBS. For rat aortic rings 10 ng/ml of […] (R and D Systems) was added, for mouse aortic and choroid explants 30 ng/ml was used. Treatments at the concentrations indicated were also added to this and media replenished every 3 days. Angiogenic sprouts from explants were counted after 7 days and expressed as sprouts/ring or explant.

The test system of another test is rat aortic rings. Nature of the test: Ex-vivo angiogenic sprouting assay, rat aortic rings. In kind it is cell-based. Particulars: peptides 0.5 μM alone or in combination, n=30-31 rings/condition. On the procedure:
FIG. 1. […] Schematic diagram showing the GST fusion protein consisting of GST fused at the N-terminus of the complete coding sequence of the murine Syndecan-3 extracellular core protein. This protein was expressed and purified from bacteria and was tested in the rat aortic ring angiogenic sprouting assay. Aortas were dissected from rats before being sliced into 1 mm wide rings. They are then embedded in collagen I with 0.5 μM of either GST or S3ED purified fusion proteins. 10 ng/ml of VEGF-A was then added into feeding media to encourage angiogenesis. After 7 days, angiogenic sprouts were counted. Images were captured on day 7 using a Hamamatsu Orca ER digital camera and processed using Cell M software. Data is from at least 10 rings per condition from 8 […]. (A) Phase contrast micrographs of aortic rings after 7 days. (B) Graph showing the number of sprouts formed after 7 days (*** p≤0.005).
FIG. 4. […] Comparison of the antiangiogenic sequences in the murine and human forms of syndecan-3 (A). Amino acids which are different are highlighted in yellow. Rat aortic rings where treated with 0.5 μM of either QM107, QM111, QM111M or in combination. […]
Thoracic aortas were dissected from either male wistar rats (˜200 g) or 4-5 week old male C57BL6J mice (both obtained from Charles River, UK). […] Angiogenic sprouts from explants were counted after 7 days and expressed as sprouts/ring or explant.

In a further test the test system is HUVECs. Kind of test: Scratch wound cell migration assay. Particulars: synthetic peptides alone or in combination. In kind it is cell-based, human. As to the method:
FIG. 2. Miniaturization strategy to identify minimum peptide sequence for inhibition of angiogenesis. Schematic diagram showing the series of deletion mutants generated to ascertain the anti-angiogenic peptide sequence contained in syndecan-3 (A). Purified GST fusion proteins were used at a concentration of 0.5 μM in scratch wound migration assays using confluent monolayers of HUEVCs. Wound closure was measured after 7 hours. In this way we identified that the antiangiogenic properties of Syndecan-3 reside between P195 and A221 of the protein.
FIG. 3. […] Comparison of the antiangiogenic sequences in the murine and human forms of syndecan-3 (A). Amino acids which are different are highlighted in yellow. Scratch wound cell migration assays comparing the anti-migratory effects of QM107, QM111 and QM111M on HUVECS (B). […]
Confluent monolayers of HUVECs were scratched with a pipette tip, cells were then washed twice with PBS prior to the addition of growth medium supplemented with either GST fusion proteins or peptide treatments. Wounds were monitored by time lapse microscopy using an Olympus IX81 Microscope Hamamatsu Orca ER digital camera. Regions of interests in the scratch area were recorded using Cell^M software (Olympus) and micrographs of ROIs taken every 30 min for 16 hours with an Olympus IX81 inverted microscope. The initial and final gap was measured using ImageJ software (NIH).

The test system of test [1] is pathological retinal neovascularisation (preretinal tufts). Kind of test: Oxygen-induced retinopathy (OIR) mouse model. In kind it is in vivo. Particulars: mouse pups, 0.5 μM QM111 injected into eye on return to normoxia vs PBS eye, analysed at P17. On the procedure: FIG. 5. […] Data from an oxygen-induced model of retinopathy study. In this study. OIR was generated by exposing mice pups to 75% oxygen for 5 days from P7-P12. On P13, mice are injected with PBS (left eye) and 0.5 μM QM111 (right eye). They were then placed into 20% oxygen from P13-P17 where they underwent hypoxia. which led to neovascularisation taking place. OIR samples were collected at P17 and retinal structures were stained with isolectin GS-IB4. Neovascularisation was quantified by measuring the total areas where preretinal tufts were present. […] Data is from 8 mice.
Neonatal mice (both male and female) at P7 were exposed to 75% oxygen for 5 days with their nursing mothers. At P12, they were returned to normoxia. Animals were euthanized at P12 to determine the area of vaso-obliteration or at P17 to determine the rate of retinal revascularization and pre-retinal neovascularization. […] Sub retinal injections of the treatments described and controls was administered at day P12 upon return to normoxic conditions. Analysis of retinal vasculature was done as previously described. […] Pre-retinal neovascular tufts were readily distinguished from the superficial vascular plexus by focusing just above the inner limiting membrane. Areas of vascular obliteration and pathological neovascularization (neovascular tufts) were quantified using Adobe Photoshop CS3. […]

Turning to “LPLPLTTVA (listed as Homo sapiens) [QM111T]”, in the test on murine choroid explants, the “angiogenic sprouting from murine choroid explants” value was “inhibited angiogenesis to the same degree as QM111 and QM107”.

With “PPFTATT AVIRTTGVRR LLPLPLTTVA (PPFTATTAVIRTTGVRRLLPLPLTTVA; listed as Homo sapiens) [QM111, human syndecan-3 peptide corresponding to the anti-angiogenic region]”, in the test on rat aortic rings, the “angiogenic sprout formation from rat aortic rings” value is “inhibited to a similar degree”. Besides, in the test with HUVECs, the “endothelial cell (HUVEC) migration in scratch wound assay” value is recorded as “inhibited endothelial cell migration to the same degree”. Also, the “pathological neovascularisation (area of preretinal tufts) in oxygen-induced retinopathy” value in test [1] is reported as “reduced pathological angiogenesis; also recorded: blocks pathological neovascularization”.

On to “QM111M: mouse peptide, 27 amino acids of the anti-angiogenic region (P195-A221) of murine syndecan-3 (PPATATVADVRTTGIQGMLPLPLTTAA; UniProt Q64519 195-221, looked up, fragment)”, for which the “angiogenic sprout formation from rat aortic rings” value in the test on rat aortic rings was “inhibited to a similar degree”. For the same substance, in the test on HUVECs, the “endothelial cell (HUVEC) migration in scratch wound assay” value is “inhibited endothelial cell migration to the same degree”.
